Source: the NIST ThermoML archive (doi:10.1016/j.tca.2016.01.016)
Where “and” joins values, the source holds several entries; their conditions need not be identical. Identical values can stand only once.

Assay: molar heat capacity at constant pressure
Settings: 101.33 kPa, Crystal, Small sample (50 mg) DSC

O=P([O-])([O-])[O-].[Er+3] [erbium phosphate]
Settings	molar heat capacity at constant pressure
348.15 K	113.7 J/K/mol and 113.8 J/K/mol
353.15 K	114.5 J/K/mol and 114.6 J/K/mol
358.15 K	115.2 J/K/mol and 115.3 J/K/mol
363.15 K	115.9 J/K/mol and 116.1 J/K/mol
368.15 K	116.4 J/K/mol and 116.8 J/K/mol
373.15 K	116.8 J/K/mol and 117.4 J/K/mol
378.15 K	117.4 J/K/mol and 118.1 J/K/mol
383.15 K	118.1 J/K/mol and 118.8 J/K/mol
388.15 K	119.1 J/K/mol and 119.4 J/K/mol
393.15 K	119.9 J/K/mol and 120 J/K/mol
398.15 K	120.7 J/K/mol and 120.6 J/K/mol
403.15 K	121.5 J/K/mol and 121.2 J/K/mol
408.15 K	122.2 J/K/mol and 121.8 J/K/mol
413.15 K	122.9 J/K/mol and 122.4 J/K/mol
418.15 K	123.5 J/K/mol and 123 J/K/mol
423.15 K	124 J/K/mol and 123.5 J/K/mol
428.15 K	124.5 J/K/mol and 124.1 J/K/mol
433.15 K	125 J/K/mol and 124.6 J/K/mol
438.15 K	125.4 J/K/mol and 125.1 J/K/mol
443.15 K	125.9 J/K/mol and 125.6 J/K/mol
448.15 K	126.4 J/K/mol and 126.1 J/K/mol
453.15 K	126.9 J/K/mol and 126.6 J/K/mol
458.15 K	127.4 J/K/mol and 127.1 J/K/mol
463.15 K	127.8 J/K/mol and 127.6 J/K/mol
468.15 K	128.2 J/K/mol and 128 J/K/mol
473.15 K	128.7 J/K/mol and 128.5 J/K/mol
478.15 K	129.1 J/K/mol and 129 J/K/mol
483.15 K	129.5 J/K/mol and 129.4 J/K/mol
488.15 K	129.9 J/K/mol and 129.8 J/K/mol
493.15 K	130.3 J/K/mol and 130.3 J/K/mol
498.15 K	130.7 J/K/mol and 130.7 J/K/mol
503.15 K	131.1 J/K/mol and 131.1 J/K/mol
508.15 K	131.5 J/K/mol and 131.5 J/K/mol
513.15 K	132 J/K/mol and 131.9 J/K/mol
518.15 K	132.4 J/K/mol and 132.3 J/K/mol
523.15 K	132.8 J/K/mol and 132.7 J/K/mol
528.15 K	133.2 J/K/mol and 133.1 J/K/mol
533.15 K	133.6 J/K/mol and 133.4 J/K/mol
538.15 K	134 J/K/mol and 133.8 J/K/mol
543.15 K	134.5 J/K/mol and 134.2 J/K/mol
548.15 K	134.8 J/K/mol and 134.5 J/K/mol
553.15 K	135.1 J/K/mol and 134.9 J/K/mol
558.15 K	135.4 J/K/mol and 135.2 J/K/mol
563.15 K	135.8 J/K/mol and 135.6 J/K/mol
568.15 K	136.1 J/K/mol and 135.9 J/K/mol
573.15 K	136.3 J/K/mol and 136.2 J/K/mol
578.15 K	136.6 J/K/mol and 136.6 J/K/mol
583.15 K	136.9 J/K/mol and 136.9 J/K/mol
588.15 K	137.2 J/K/mol and 137.2 J/K/mol
593.15 K	137.5 J/K/mol and 137.5 J/K/mol
598.15 K	137.8 J/K/mol and 137.8 J/K/mol
603.15 K	138 J/K/mol and 138.1 J/K/mol
608.15 K	138.3 J/K/mol and 138.4 J/K/mol
613.15 K	138.6 J/K/mol and 138.7 J/K/mol
618.15 K	138.8 J/K/mol and 139 J/K/mol
623.15 K	139 J/K/mol and 139.3 J/K/mol
628.15 K	139.3 J/K/mol and 139.6 J/K/mol
633.15 K	139.6 J/K/mol and 139.9 J/K/mol
638.15 K	139.8 J/K/mol and 140.2 J/K/mol
643.15 K	140.1 J/K/mol and 140.4 J/K/mol
648.15 K	140.3 J/K/mol and 140.7 J/K/mol
653.15 K	140.6 J/K/mol and 141 J/K/mol
658.15 K	140.9 J/K/mol and 141.3 J/K/mol
663.15 K	141.2 J/K/mol and 141.5 J/K/mol
668.15 K	141.4 J/K/mol and 141.8 J/K/mol
673.15 K	141.6 J/K/mol and 142 J/K/mol
678.15 K	141.8 J/K/mol and 142.3 J/K/mol
683.15 K	142.1 J/K/mol and 142.5 J/K/mol
688.15 K	142.3 J/K/mol and 142.8 J/K/mol
693.15 K	142.6 J/K/mol and 143 J/K/mol
698.15 K	142.9 J/K/mol and 143.3 J/K/mol
703.15 K	143.1 J/K/mol and 143.5 J/K/mol
708.15 K	143.5 J/K/mol and 143.8 J/K/mol
713.15 K	143.7 J/K/mol and 144 J/K/mol
718.15 K	143.9 J/K/mol and 144.2 J/K/mol
723.15 K	144.2 J/K/mol and 144.4 J/K/mol
728.15 K	144.4 J/K/mol and 144.7 J/K/mol
733.15 K	144.6 J/K/mol and 144.9 J/K/mol
738.15 K	144.8 J/K/mol and 145.1 J/K/mol
743.15 K	145 J/K/mol and 145.3 J/K/mol
748.15 K	145.2 J/K/mol and 145.6 J/K/mol
753.15 K	145.5 J/K/mol and 145.8 J/K/mol
758.15 K	145.8 J/K/mol and 146 J/K/mol
763.15 K	146.1 J/K/mol and 146.2 J/K/mol
768.15 K	146.3 J/K/mol and 146.4 J/K/mol
773.15 K	146.5 J/K/mol and 146.6 J/K/mol
778.15 K	146.8 J/K/mol and 146.8 J/K/mol
783.15 K	147 J/K/mol and 147 J/K/mol
788.15 K	147.2 J/K/mol and 147.2 J/K/mol
793.15 K	147.5 J/K/mol and 147.4 J/K/mol
798.15 K	147.8 J/K/mol and 147.6 J/K/mol
803.15 K	148 J/K/mol and 147.8 J/K/mol
808.15 K	148.2 J/K/mol and 148 J/K/mol
813.15 K	148.5 J/K/mol and 148.2 J/K/mol
818.15 K	148.7 J/K/mol and 148.4 J/K/mol
823.15 K	148.9 J/K/mol and 148.5 J/K/mol
828.15 K	149.1 J/K/mol and 148.7 J/K/mol
833.15 K	149.3 J/K/mol and 148.9 J/K/mol
838.15 K	149.5 J/K/mol and 149.1 J/K/mol
843.15 K	149.7 J/K/mol and 149.3 J/K/mol
848.15 K	149.9 J/K/mol and 149.5 J/K/mol
853.15 K	150.2 J/K/mol and 149.6 J/K/mol
858.15 K	150.3 J/K/mol and 149.8 J/K/mol
863.15 K	150.5 J/K/mol and 150 J/K/mol
868.15 K	150.8 J/K/mol and 150.1 J/K/mol
